Assay results taken from the NIST ThermoML archive (doi:10.1021/je1008747).
± gives the expanded uncertainty stated by the source.

Settings: Liquid

CCCCn1cc[n+](C)c1.[Cl-] [1-butyl-3-methylimidazolium chloride]
mass density (348.15 K, 101.33 kPa): 1055.7 ± 2.4 kg/m3
mass density (352.1 K, 100 kPa): 1054 ± 2 kg/m3
mass density (352.1 K, 10000 kPa): 1058 ± 2 kg/m3
mass density (352.1 K, 20000 kPa): 1062 ± 2 kg/m3
mass density (352.1 K, 30000 kPa): 1067 ± 2 kg/m3
mass density (352.1 K, 40000 kPa): 1071 ± 2 kg/m3
mass density (352.1 K, 50000 kPa): 1074 ± 3 kg/m3
mass density (352.1 K, 60000 kPa): 1078 ± 3 kg/m3
mass density (352.1 K, 70000 kPa): 1082 ± 3 kg/m3
mass density (352.1 K, 80000 kPa): 1085 ± 3 kg/m3
mass density (352.1 K, 90000 kPa): 1089 ± 3 kg/m3
mass density (352.1 K, 100000 kPa): 1093 ± 3 kg/m3
mass density (352.1 K, 110000 kPa): 1096 ± 3 kg/m3
mass density (352.1 K, 120000 kPa): 1099 ± 3 kg/m3
mass density (352.1 K, 130000 kPa): 1102 ± 3 kg/m3
mass density (352.1 K, 140000 kPa): 1106 ± 3 kg/m3
mass density (352.1 K, 150000 kPa): 1109 ± 3 kg/m3
mass density (352.1 K, 160000 kPa): 1112 ± 3 kg/m3
mass density (352.1 K, 170000 kPa): 1115 ± 3 kg/m3
mass density (352.1 K, 180000 kPa): 1118 ± 3 kg/m3
mass density (352.1 K, 190000 kPa): 1121 ± 4 kg/m3
mass density (352.1 K, 200000 kPa): 1124 ± 4 kg/m3
mass density (353.15 K, 101.33 kPa): 1053 ± 2.4 kg/m3
mass density (358.15 K, 101.33 kPa): 1050.4 ± 2.4 kg/m3
mass density (363.15 K, 101.33 kPa): 1047.7 ± 2.4 kg/m3
mass density (368.15 K, 101.33 kPa): 1045.1 ± 2.4 kg/m3
mass density (372.4 K, 10000 kPa): 1046 ± 2 kg/m3
mass density (372.4 K, 20000 kPa): 1050 ± 2 kg/m3
mass density (372.4 K, 30000 kPa): 1055 ± 2 kg/m3
mass density (372.4 K, 40000 kPa): 1059 ± 2 kg/m3
mass density (372.4 K, 50000 kPa): 1063 ± 2 kg/m3
mass density (372.4 K, 60000 kPa): 1067 ± 3 kg/m3
mass density (372.4 K, 70000 kPa): 1071 ± 3 kg/m3
mass density (372.4 K, 80000 kPa): 1074 ± 3 kg/m3
mass density (372.4 K, 90000 kPa): 1078 ± 3 kg/m3
mass density (372.4 K, 100000 kPa): 1081 ± 3 kg/m3
mass density (372.4 K, 110000 kPa): 1085 ± 3 kg/m3
mass density (372.4 K, 120000 kPa): 1088 ± 3 kg/m3
mass density (372.4 K, 130000 kPa): 1092 ± 3 kg/m3
mass density (372.4 K, 140000 kPa): 1095 ± 3 kg/m3
mass density (372.4 K, 150000 kPa): 1099 ± 3 kg/m3
mass density (372.4 K, 160000 kPa): 1102 ± 3 kg/m3
mass density (372.4 K, 170000 kPa): 1105 ± 3 kg/m3
mass density (372.4 K, 180000 kPa): 1108 ± 3 kg/m3
mass density (372.4 K, 190000 kPa): 1111 ± 3 kg/m3
mass density (372.4 K, 200000 kPa): 1115 ± 4 kg/m3
mass density (373.15 K, 101.33 kPa): 1042.6 ± 2.4 kg/m3
mass density (392.3 K, 10000 kPa): 1034 ± 2 kg/m3
mass density (392.3 K, 20000 kPa): 1038 ± 2 kg/m3
mass density (392.3 K, 30000 kPa): 1043 ± 2 kg/m3
mass density (392.3 K, 40000 kPa): 1047 ± 2 kg/m3
mass density (392.3 K, 50000 kPa): 1052 ± 2 kg/m3
mass density (392.3 K, 60000 kPa): 1056 ± 2 kg/m3
mass density (392.3 K, 70000 kPa): 1059 ± 3 kg/m3
mass density (392.3 K, 80000 kPa): 1063 ± 3 kg/m3
mass density (392.3 K, 90000 kPa): 1067 ± 3 kg/m3
mass density (392.3 K, 100000 kPa): 1071 ± 3 kg/m3
mass density (392.3 K, 110000 kPa): 1075 ± 3 kg/m3
mass density (392.3 K, 120000 kPa): 1078 ± 3 kg/m3
mass density (392.3 K, 130000 kPa): 1081 ± 3 kg/m3
mass density (392.3 K, 140000 kPa): 1085 ± 3 kg/m3
mass density (392.3 K, 150000 kPa): 1088 ± 3 kg/m3
mass density (392.3 K, 160000 kPa): 1092 ± 3 kg/m3
mass density (392.3 K, 170000 kPa): 1095 ± 3 kg/m3
mass density (392.3 K, 180000 kPa): 1099 ± 3 kg/m3
mass density (392.3 K, 190000 kPa): 1102 ± 3 kg/m3
mass density (392.3 K, 200000 kPa): 1105 ± 3 kg/m3
mass density (412.3 K, 10000 kPa): 1022 ± 2 kg/m3
mass density (412.3 K, 20000 kPa): 1027 ± 2 kg/m3
mass density (412.3 K, 30000 kPa): 1032 ± 2 kg/m3
mass density (412.3 K, 40000 kPa): 1036 ± 2 kg/m3
mass density (412.3 K, 50000 kPa): 1041 ± 2 kg/m3
mass density (412.3 K, 60000 kPa): 1045 ± 2 kg/m3
mass density (412.3 K, 70000 kPa): 1049 ± 2 kg/m3
mass density (412.3 K, 80000 kPa): 1053 ± 2 kg/m3
mass density (412.3 K, 90000 kPa): 1057 ± 3 kg/m3
mass density (412.3 K, 100000 kPa): 1061 ± 3 kg/m3
mass density (412.3 K, 110000 kPa): 1064 ± 3 kg/m3
mass density (412.3 K, 120000 kPa): 1068 ± 3 kg/m3
mass density (412.3 K, 130000 kPa): 1072 ± 3 kg/m3
mass density (412.3 K, 140000 kPa): 1076 ± 3 kg/m3
mass density (412.3 K, 150000 kPa): 1079 ± 3 kg/m3
mass density (412.3 K, 160000 kPa): 1082 ± 3 kg/m3
mass density (412.3 K, 170000 kPa): 1086 ± 3 kg/m3
mass density (412.3 K, 180000 kPa): 1089 ± 3 kg/m3
mass density (412.3 K, 190000 kPa): 1092 ± 3 kg/m3
mass density (412.3 K, 200000 kPa): 1096 ± 3 kg/m3
mass density (432.2 K, 10000 kPa): 1011 ± 2 kg/m3
mass density (432.2 K, 20000 kPa): 1016 ± 2 kg/m3
mass density (432.2 K, 30000 kPa): 1021 ± 2 kg/m3
mass density (432.2 K, 40000 kPa): 1026 ± 2 kg/m3
mass density (432.2 K, 50000 kPa): 1030 ± 2 kg/m3
mass density (432.2 K, 60000 kPa): 1035 ± 2 kg/m3
mass density (432.2 K, 70000 kPa): 1039 ± 2 kg/m3
mass density (432.2 K, 80000 kPa): 1043 ± 2 kg/m3
mass density (432.2 K, 90000 kPa): 1047 ± 2 kg/m3
mass density (432.2 K, 100000 kPa): 1051 ± 3 kg/m3
mass density (432.2 K, 110000 kPa): 1055 ± 3 kg/m3
mass density (432.2 K, 120000 kPa): 1059 ± 3 kg/m3
mass density (432.2 K, 130000 kPa): 1062 ± 3 kg/m3
mass density (432.2 K, 140000 kPa): 1066 ± 3 kg/m3
mass density (432.2 K, 150000 kPa): 1069 ± 3 kg/m3
mass density (432.2 K, 160000 kPa): 1073 ± 3 kg/m3
mass density (432.2 K, 170000 kPa): 1076 ± 3 kg/m3
mass density (432.2 K, 180000 kPa): 1080 ± 3 kg/m3
mass density (432.2 K, 190000 kPa): 1083 ± 3 kg/m3
mass density (432.2 K, 200000 kPa): 1087 ± 3 kg/m3
mass density (452 K, 10000 kPa): 1000 ± 2 kg/m3
mass density (452 K, 20000 kPa): 1005 ± 2 kg/m3
mass density (452 K, 30000 kPa): 1010 ± 2 kg/m3
mass density (452 K, 40000 kPa): 1015 ± 2 kg/m3
mass density (452 K, 50000 kPa): 1020 ± 2 kg/m3
mass density (452 K, 60000 kPa): 1024 ± 2 kg/m3
mass density (452 K, 70000 kPa): 1028 ± 2 kg/m3
mass density (452 K, 80000 kPa): 1032 ± 2 kg/m3
mass density (452 K, 90000 kPa): 1037 ± 2 kg/m3
mass density (452 K, 100000 kPa): 1041 ± 2 kg/m3
mass density (452 K, 110000 kPa): 1045 ± 3 kg/m3
mass density (452 K, 120000 kPa): 1048 ± 3 kg/m3
mass density (452 K, 130000 kPa): 1052 ± 3 kg/m3
mass density (452 K, 140000 kPa): 1056 ± 3 kg/m3
mass density (452 K, 150000 kPa): 1060 ± 3 kg/m3
mass density (452 K, 160000 kPa): 1063 ± 3 kg/m3
mass density (452 K, 170000 kPa): 1067 ± 3 kg/m3
mass density (452 K, 180000 kPa): 1070 ± 3 kg/m3
mass density (452 K, 190000 kPa): 1074 ± 3 kg/m3
mass density (452 K, 200000 kPa): 1077 ± 3 kg/m3
